Holding throughout (type): in vivo
Assay [1] deals with Rice (variety: Nipponbare). Briefly: Test Example 3: promotion of root growth by hydroponics of rice, 0.1 ppm. The following applies: Oryza sativa, hydroponic solution containing the test compound at 0.1 ppm, average of 4 or 5 individuals, read-out: Relative value of length of seminal root (%-untreated control plot). The method in brief: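 Surface-sterilised Nipponbare seeds were germinated 3 days in the dark at 28 °C in ¼-strength Hoagland solution containing 0.1 ppm compound; DMSO-only solution served as control. Seedlings were then grown 3 days hydroponically at 26 °C, 4,000 lux, 16 h day. Seminal root length was measured and averaged over 4–5 plants.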

In assay [2] the test system is Nicotiana benthamiana. Briefly: Test Example 5: growth promotion under low-temperature stress by hydroponics of Nicotiana benthamiana, 1 ppm. Particulars: 1 ppm in medium, low-temperature stress 7 days at 1.5±1.0° C., green leaf area 3 days later, equation (1). In outline:
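Seeds were grown in half-strength Murashige–Skoog medium (pH 5.8) containing 1 ppm compound for 7 days at 22 °C, then chilled 7 days at 1.5±1.0 °C and recovered 3 days at 22 °C. Green leaf area was imaged. Relative leaf area = 100×(treated − untreated)/(unstressed untreated − stressed untreated).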

The subject of assay [3] is Corn seeds (variety: Pioneer 120 31P41). Briefly: Test Example 14: growth promotion under low-temperature stress by soil drench treatment of corn. The following applies: Zea mays, 120 h, soil drench 20 ml, low-temperature stress 5 days at 2.5° C., health score 0-5, average of 4 individuals, read-out: Relative value of score (%- untreated control plot); for change in vivo at 0.3 ppm: concentration tested 0.3 ppm; for change in vivo at 1 ppm: concentration tested 1 ppm; for change in vivo at 10 ppm: concentration tested 10 ppm. Here is the method: Test for Evaluating Growth Promotion Under Low-Temperature Stress by Soil Drench Treatment of Corn
Corn seeds (variety: Pioneer 120 31P41) were seeded in a culture soil (Aisai) in a plastic pot (φ55 mm×height of 58 mm), and cultivated for 7 days at 20-25° C., an illuminance of about 5,000 lux, and a day length of 16 hours.
A DMSO solution, which contained one of the compounds 1 to 9, 16, 17, 20, 23, 24, 28 to 32, 34, 45, 48, 50, 82 and 85 of the present invention at a concentration of 1,000-fold concentration of each test concentration, was prepared, and then diluted with distilled water to obtain each test solution. After that, 20 ml of the obtained test solution was used to perform soil drench treatment on the foot of the test plants. The test plants were cultivated for 2 days under the conditions of a temperature of 27° C., a humidity of 40-80%, an illuminance of about 5,000 lux, and a day length of 16 hours. This was used as a test plot treated with the compound. A plot having undergone the soil drench treatment with 20 ml of a 0.1% DMSO aqueous solution instead of the above DMSO solution containing the compound was used as an untreated control plot.
The plants having undergone the soil drench treatment were cultivated for 5 days under the conditions of a temperature of 2.5° C., a humidity of 40-80%, an illuminance of about 5,000 lux, and a day length of 16 hours, thereby exposing to low-temperature stress. After the exposure to the low-temperature stress, the plants were cultivated for 4 days under the conditions of a temperature of 27° C., a humidity of 40-80%, an illuminance of about 5,000 lux, and a day length of 16 hours.
After the cultivation, the health of each plant was scored according to the following evaluation index.
5: 4 or more leaves in which ⅔ or more of the area was healthy
4: 3 leaves in which ⅔ or more of the area was healthy
3: 2 leaves in which ⅔ or more of the area was healthy
2: 1 leaf in which ⅔ or more of the area was healthy
1: No leaf in which ⅔ or more of the area was healthy
An average of the scores of the health of 4 individuals was determined.

For assay [4], the system named is Nicotiana benthamiana. Briefly: Test Example 6: growth promotion under low-temperature stress by hydroponics of Nicotiana benthamiana, 0.1 ppm. The following applies: 0.1 ppm in medium, low-temperature stress 7 days at 1.5±1.0° C., green leaf area 3 days later, equation (1). As for the experimental part:
Test for Evaluating Growth Promotion Under Low-Temperature Stress by Hydroponics of Nicotiana benthamiana
A DMSO solution, which contained one of the compounds 3, 7, 14, 16, 36, 39, 43, 45, 50, 52, 53, 54, 56, 57, 62, 63, 64, 65, 68, 69, 70, 71, 73, 74, 76, 77, 79, 80, 81, 84, 85, 86 and 87 of the present invention at a concentration of 100 ppm, was prepared. The DMSO solution of the compound of the present invention was added at a volume ratio of 1/1,000 to the Murashige•Scoog medium of a ½-fold concentration for the Murashige•Scoog medium (a medium containing 2.3 g of mixed salts (manufactured by Wako Pure Chemical Industries, Ltd.), 200 mg of Myo-inositol (manufactured by Sigma-Aldrich Co. LLC.), 2 mg of nicotinic acid (manufactured by Wako Pure Chemical Industries, Ltd.), 2 mg of pyridoxine hydrochloride (manufactured by Wako Pure Chemical Industries, Ltd.), 20 mg of thiamine hydrochloride (manufactured by Wako Pure Chemical Industries, Ltd.), 20 g of sucrose (manufactured by Wako Pure Chemical Industries, Ltd.), and 1 g of MES (manufactured by DOJINDO LABORATORIES) per 1 L of water and having pH adjusted to 5.8), thereby preparing a medium containing the compound of the present invention at a concentration of 0.1 ppm.
Seeds of Nicotiana benthamiana were seeded in the 5 μL of the medium and cultured overnight at 22° C. Thereafter, 45 μL of the medium containing the compound of the present invention at a concentration of 0.1 ppm was added thereto, and the seeds are cultivated for 7 days at 22° C., an illuminance of 4,000 lux, and a day length of 16 hours, and the nursery plants raised from the Nicotiana benthamiana were treated with the compound. Moreover, instead of the above medium a test plot, which was obtained by performing the same treatment by using a medium prepared by adding DMSO to the Murashige•Scoog medium of ½-fold concentration at a volume ratio of 1/1,000, was used as a control plot not treated with the compound.
The nursery plants of the Nicotiana benthamiana treated with the compound were subjected to low-temperature treatment by being cultivated for 7 days at 1.5±1.0° C., an illuminance of 2,000 lux, and a day length of 16 hours.
The nursery plants of the Nicotiana benthamiana having undergone the low-temperature stress treatment were cultivated for 3 days at 22° C., an illuminance of 4,000 lux, and a day length of 16 hours. Thereafter, the area of green leaf was quantified by Scanalyzer HTS (manufactured by LemnaTec GmbH). Moreover, the value of the control plot not treated with the compound that had not yet been subjected to the low-temperature stress treatment was measured in the same manner. A value of a relative leaf area was calculated based on the following equation (1), and if the value of a relative leaf area was 5 or greater, the compound was evaluated to have a mitigating effect. As a result of the evaluation, it was confirmed that when the plant was treated with one of the compounds 3, 7, 14, 16, 36, 39, 43, 45, 50, 52, 53, 54, 56, 57, 62, 63, 64, 65, 68, 69, 70, 71, 73, 74, 76, 77, 79, 80, 81, 84, 85, 86 and 87 of the present invention at 0.1 ppm, the value of a relative leaf area was 5 or greater, compared to the area of green leaf of the control plot not treated with compound. Accordingly, it was confirmed that the treatment using the compound of the present invention brings about a growth promotion effect.
Relative leaf area=100*(a green area of a plot treated with the compound of the present invention−a green area of a control plot not treated with the compound of the present invention)/(a green area of a control plot not treated with the compound of the present invention that has not yet been subjected to low-temperature stress treatment−green area of a control plot not treated with the compound of the present invention) Equation (1): […]

Assay [5] relates to Rice (variety: Nipponbare). The assay is described as follows: Test Example 1: promotion of root growth by hydroponics of rice, 10 ppm. Particulars: Oryza sativa, hydroponic solution containing the test compound at 10 ppm, average of 4 or 5 individuals, read-out: Relative value of length of seminal root (%-untreated control plot). In outline: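 Surface-sterilised seeds germinated 3 days in the dark at 28° C in hydroponic solution with compound at 10 ppm, then grown 3 days hydroponically with compound at 10 ppm (26° C, 4,000 lux, 16 h day, 50% humidity). Seminal root length measured by image analysis, averaged over 4 or 5 plants per plot.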

On to `O=C(O)c1nc2cc(C(F)(F)F)ccc2[nH]1` [Compound 20, 5-(trifluoromethyl)-benzimidazole-2-carboxylic acid], for which the change in vivo at 0.1 ppm in assay [1] is above 5%. Further, the relative leaf area (% of untreated control) at 1 ppm in the assay on Nicotiana benthamiana [2] is at least 5%. In addition, in assay [3], the change in vivo at 0.3 ppm is above 5%.
Turning to `O=C(O)c1cc2cc(C(F)(F)F)ccc2[nH]1` [Compound 7, 5-trifluoromethylindole-2-carboxylic acid], the change in vivo at 0.1 ppm in assay [1] is above 5%. The compound also had a relative leaf area (% of untreated control) at 0.1 ppm with Nicotiana benthamiana [4] of at least 5%. Further, the change in vivo at 1 ppm in assay [3] was above 5%.
Consider `CCOC(=O)c1cc2cc(C(F)(F)F)ccc2o1` [Compound 4, ethyl 5-trifluorometethylbenzofuran-2-carboxylate], for which the change in vivo at 10 ppm in assay [5] and in assay [3] was above 5% in each case. The same compound gave a relative leaf area (% of untreated control) at 1 ppm with Nicotiana benthamiana [2] of at least 5%.
For the compound `COc1ccc(NC(=O)c2cc3cc(C(F)(F)F)ccc3o2)c(OC)c1` [Compound 5, N-(2,4-dimethoxyphenyl)-5-trifluoromethylbenzofuran-2-carboxamide], the change in vivo at 10 ppm in assay [5] was above 5%. Besides, in the assay on Nicotiana benthamiana [2], the relative leaf area (% of untreated control) at 1 ppm was at least 5%. Moreover, the change in vivo at 0.3 ppm in assay [3] was above 5%.
`O=C(O)c1cc2cc(C(F)(F)F)ccc2o1` [Compound 2, 5-trifluoromethylbenzofuran-2-carboxylic acid]: the change in vivo at 0.1 ppm in assay [1] was above 5%. In the assay on Nicotiana benthamiana [2], this compound displayed a relative leaf area (% of untreated control) at 1 ppm of at least 5%. In addition, the change in vivo at 10 ppm in assay [3] was above 5%.
Turning to `COC(=O)c1nc2ccccc2o1` [Compound 16, methyl benzoxazole-2-carboxylate], the change in vivo at 0.1 ppm in assay [1] is above 5%. The same compound came in with a relative leaf area (% of untreated control) at 0.1 ppm with Nicotiana benthamiana [4] of at least 5%. Further, the change in vivo at 1 ppm in assay [3] was above 5%.

The record behind these values is US20150289512A1, “METHOD FOR PROMOTING PLANT GROWTH” (SUMITOMO CHEMICAL COMPANY, LIMITED, priority 2012, published 2015).
